Assay results as given in patent publication US20140017223A1, “Pharmaceutical Compositions Comprising A Pancreatic Enzyme Preparation With Viral Infectivity Reduced Below A Significant Level And Methods Of Preparing And Using The Same” (Aptalis Pharma Canada Inc., priority 2010, published 2014).

Columns and labels:
PPV = experiment: Inactivation of PPV by BPL in higher concentration of PEP (200 mg/ml), time course, thiosulfate quench (Example 5); type: cell-based, porcine parvovirus (PPV); conditions: 200 mg PEP/ml
Description: The focus of this experiment was to measure the effect of increased PEP concentration on the efficiency of the inactivation procedure and to evaluate lower concentration ranges of BPL.
PPV virus stock (prepared using standard protocols (Arella et al., Physicochemical properties, production, and purification of parvoviruses. 1990, In Tijssen, P. (ed.), CRC handbook of parvoviruses. Boca Raton, Fla.: CRC Press, 11-30)) was diluted with water and this solution (containing 1.42×10^10 FFID50 PPV viruses) was used to suspend the 0.5 gram of PEP powder to yield a final concentration of 200 mg PEP/ml.
Tubes were incubated for one hour at 25° C. before the addition of BPL. BPL was added either directly to the PEP solution (for a final concentration of 0.4 vol. %) or it was first diluted ten and hundred times for final concentrations of 0.04 vol. % and 0.004 vol. %, respectively. After the addition of BPL, the solution was further mixed and incubated at 25° C. for a predetermined period (1, 2, 4, 6, or 8 hours). A sodium thiosulfate solution was freshly prepared on the day of each inactivation experiments. After the period expired for the BPL inactivation, sodium thiosulfate was added to the PEP solution, mixed intensively and incubated at least 6 hours at 4° C. to quench the excess BPL. After this step the infectivity titration experiments as described in U.S. Patent Publication No. 2009/0226414 were performed. All experiments were done using three parallel samples for each time point.

amylase = experiment: Amylase activity of pancrelipase after BPL treatment, freezing and lyophilization (USP 31 method); type: biochemical; conditions: for Loss of Amylase Activity: pancrelipase, freezing, lyophilization, precision 5-10%
Description: Enzymatic activity for the enzymes of a PEP (e.g., proteases, lipases, and amylases) can be determined, for example, by using the United States Pharmacopeia (USP) monographed methods (The United States Pharmacopeia and the National Formulary (USP 31/NF 26). 2008. Rockville (MD): United States Pharmacopeial Convention, Inc.).
The samples c-d from all the experiments were tested for lipase, protease, and amylase enzymatic activity using USP 31 monographed methods. See Example 11 and Table 11.
Table 11 presents the lipase, protease, and amylase activity for aliquots of the pancrelipase after BPL treatment for 30 min at 25° C. followed by freezing and lyophilization (same treatment as for samples in Example 10).

Endogenous PPV = experiment: Inactivation of endogenous PPV of PEP by BPL, chloroform/PEG extraction method (Example 4); type: cell-based, porcine parvovirus (PPV); conditions: for Detected PPV Titer: 0*=below detection limit of 63 FFID50/g PEP
Description: Pancrelipase powders from 2 different lots were each dissolved in 100 mM Tris, pH=8.3, at a concentration of 100 mg/ml. Two ml non-purified PPV viral stock (prepared using standard protocols (Arella et al., Physicichemical properties, production, and purification of parvoviruses. 1990, In Tijssen, P. (ed.), CRC handbook of parvoviruses. Boca Raton, Fla.: CRC Press, 11-30)) were added to 38 ml of the pancrelipase solution. The virus was mixed with the PEP using slow shaking at room temperature for one day. Aliquots were taken from the PPV-spiked pancrelipase stocks and each was incubated with different concentrations of BPL (available from Sigma-Aldrich, St. Louis, Mo.) (except the control) for 48 hours at room temperature (20° C.). The level of viral inactivation was measured by the titration of PPV infectivity using serial dilutions of 1,000 times or more since the titer of spiked virus was high. Determination of the FFID50 was performed using the fluorescence assay as described in the PPV FFID-infectivity assay of U.S. Patent Publication No. 2009/0226414.
The experiment described in Example 1 was repeated except no additional PPV was added. Like Example 3, the infectivity assay was performed after PEG/chloroform purification.

[1] = PEP # 1, endogenous PPV 3.20 × 10^3, 0.10% (v/v) BPL
[2] = PEP # 1, endogenous PPV 3.20 × 10^3, 0.25% (v/v) BPL
[3] = PEP # 2, endogenous PPV 0.10 × 10^3, 0.04% (v/v) BPL
[4] = PEP # 2, endogenous PPV 0.10 × 10^3, 0.10% (v/v) BPL
[5] = PEP # 2, endogenous PPV 0.10 × 10^3, 0.25% (v/v) BPL
[6] = PEP # 3, endogenous PPV 6.40 × 10^3, 0.10% (v/v) BPL
[7] = PEP # 3, endogenous PPV 6.40 × 10^3, 0.25% (v/v) BPL
[8] = PEP # 4, endogenous PPV 0.20 × 10^3, 0.04% (v/v) BPL
[9] = PEP # 4, endogenous PPV 0.20 × 10^3, 0.10% (v/v) BPL
[10] = PEP # 4, endogenous PPV 0.20 × 10^3, 0.25% (v/v) BPL

## O=C1CCO1 [BPL, Beta-propiolactone]
PPV; 0.004% BPL, 1 hr at 25° C.
  Detected PPV titer average: 8.13 × 10^9 FFID50/g
  Log10 of inactivation: 0.4 Log10
PPV; 0.004% BPL, 2 hr at 25° C.
  Detected PPV titer average: 5.96 × 10^9 FFID50/g
  Log10 of inactivation: 0.6 Log10
PPV; 0.004% BPL, 4 hr at 25° C.
  Detected PPV titer average: 5.86 × 10^9 FFID50/g
  Log10 of inactivation: 0.58 Log10
PPV; 0.004% BPL, 6 hr at 25° C.
  Detected PPV titer average: 6.65 × 10^9 FFID50/g
  Log10 of inactivation: 0.53 Log10
PPV; 0.004% BPL, 8 hr at 25° C.
  Detected PPV titer average: 6.68 × 10^9 FFID50/g
  Log10 of inactivation: 0.53 Log10
PPV; 0.04% BPL, 1 hr at 25° C.
  Detected PPV titer average: 4.01 × 10^9 FFID50/g
  Log10 of inactivation: 0.7 Log10
PPV; 0.04% BPL, 2 hr at 25° C.
  Detected PPV titer average: 2.06 × 10^9 FFID50/g
  Log10 of inactivation: 1.0 Log10
PPV; 0.04% BPL, 4 hr at 25° C.
  Detected PPV titer average: 1.54 × 10^9 FFID50/g
  Log10 of inactivation: 1.2 Log10
PPV; 0.04% BPL, 6 hr at 25° C.
  Detected PPV titer average: 7.66 × 10^8 FFID50/g
  Log10 of inactivation: 1.5 Log10
PPV; 0.04% BPL, 8 hr at 25° C.
  Detected PPV titer average: 4.91 × 10^8 FFID50/g
  Log10 of inactivation: 1.7 Log10
PPV; 0.4% BPL, 1 hr at 25° C.
  Detected PPV titer average: 3.06 × 10^7 FFID50/g
  Log10 of inactivation: 2.8 Log10
PPV; 0.4% BPL, 2 hr at 25° C.
  Detected PPV titer average: 8.69 × 10^6 FFID50/g
  Log10 of inactivation: 3.4 Log10
PPV; 0.4% BPL, 4 hr at 25° C.
  Detected PPV titer average: 2.13 × 10^6 FFID50/g
  Log10 of inactivation: 4.0 Log10
PPV; 0.4% BPL, 6 hr at 25° C.
  Detected PPV titer average: 3.26 × 10^5 FFID50/g
  Log10 of inactivation: 4.8 Log10
PPV; 0.4% BPL, 8 hr at 25° C.
  Detected PPV titer average: 1.69 × 10^5 FFID50/g
  Log10 of inactivation: 5.1 Log10
amylase; lyophilized samples treated with 0.4% BPL and 0.8% BPL
  Amylase activity maintained: maintained the majority
amylase; 0.4% BPL 30 min 25° C.
  Loss of Amylase Activity: 11.40%
amylase; 0.8% BPL 30 min 25° C.
  Loss of Amylase Activity: 28.22%
Endogenous PPV; PEP # 1, endogenous PPV 3.20 × 10^3, 0.04% (v/v) BPL
  Detected PPV Titer: 0.50 × 10^2 FFID50/g
Endogenous PPV; [1]
  PPV Titer reduction: 10^3 FFID50/g
  Detected PPV Titer: < 0* FFID50/g
Endogenous PPV; [2]
  PPV Titer reduction: 10^3 FFID50/g
  Detected PPV Titer: < 0* FFID50/g
Endogenous PPV; [3]
  PPV Titer reduction: 10^3 FFID50/g
  Detected PPV Titer: < 0* FFID50/g
Endogenous PPV; [4]
  PPV Titer reduction: 10^3 FFID50/g
  Detected PPV Titer: < 0* FFID50/g
Endogenous PPV; [5]
  PPV Titer reduction: 10^3 FFID50/g
  Detected PPV Titer: < 0* FFID50/g
Endogenous PPV; PEP # 3, endogenous PPV 6.40 × 10^3, 0.04% (v/v) BPL
  Detected PPV Titer: 4.00 × 10^2 FFID50/g
Endogenous PPV; [6]
  PPV Titer reduction: 10^3 FFID50/g
  Detected PPV Titer: 0.07 × 10^2 FFID50/g
Endogenous PPV; [7]
  PPV Titer reduction: 10^3 FFID50/g
  Detected PPV Titer: < 0* FFID50/g
Endogenous PPV; [8]
  PPV Titer reduction: 10^3 FFID50/g
  Detected PPV Titer: < 0* FFID50/g
Endogenous PPV; [9]
  PPV Titer reduction: 10^3 FFID50/g
  Detected PPV Titer: < 0* FFID50/g
Endogenous PPV; [10]
  PPV Titer reduction: 10^3 FFID50/g
  Detected PPV Titer: < 0* FFID50/g
